Data as given in patent publication US9206156B2, “Substituted indole derivatives” (GRÜNENTHAL GMBH, priority 2008, dated 2015).

Columns and labels:
human μ-opiate receptor = biological target: T1, human μ-opiate receptor (Homo sapiens, UniProt P35372); experiment: μ-opiate receptor binding assay with [3H] naloxone (WGA-SPA beads); settings: 1 μmol/l test substance, 1 nmol/l [3H] naloxone, CHO-K1 cell membranes expressing human μ-opiate receptor
T1 construct: purchased NEN, Zaventem, Belgium RB-HOM; host or cells: CHO-K1 cells (membrane preparation)
Outline: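 Scintillation proximity readout: [3H]naloxone (1 nmol/l) displacement measured after 90 min, room temperature, on human μ-receptor CHO-K1 membranes in Tris-HCl/azide/BSA buffer; 25 μmol/l naloxone defined non-specific binding. Values are % specific-binding inhibition at 1 μmol/l, or Ki from IC50 (Cheng-Prusoff).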

ORL1 receptor = biological target: T2, ORL1 receptor (Homo sapiens, UniProt P41146); experiment: ORL1 receptor binding assay with 3H-nociceptin/orphanin FQ (WGA-SPA beads); settings: c=1 μM test substance; 0.5 nM 3H-nociceptin/orphanin FQ; membranes of recombinant CHO-ORL1 cells
T2 construct: expressed in transfected cells; host or cells: CHO (recombinant CHO-ORL1 cells), membranes
Outline: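 Affinity given as nanomolar Ki or as % inhibition at c=1 μM. Membranes of CHO cells expressing recombinant ORL1 (20 μg protein) were incubated one hour at room temperature with 0.5 nM 3H-nociceptin/orphanin FQ in Hepes 50 mM, pH 7.4, plus MgCl2 and EDTA; bound ligand detected by SPA bead scintillation counting.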

T2 sequence (P41146 whole entry): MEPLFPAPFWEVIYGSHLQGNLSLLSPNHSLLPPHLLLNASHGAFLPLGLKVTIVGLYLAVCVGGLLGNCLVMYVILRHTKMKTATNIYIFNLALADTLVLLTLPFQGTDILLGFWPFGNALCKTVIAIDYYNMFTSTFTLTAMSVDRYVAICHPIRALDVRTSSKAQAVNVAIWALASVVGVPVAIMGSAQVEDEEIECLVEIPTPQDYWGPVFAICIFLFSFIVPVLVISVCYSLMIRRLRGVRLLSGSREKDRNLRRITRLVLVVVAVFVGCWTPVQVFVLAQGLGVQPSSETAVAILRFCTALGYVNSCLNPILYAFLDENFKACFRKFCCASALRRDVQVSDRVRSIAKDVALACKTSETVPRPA
T1 sequence (P35372 whole entry): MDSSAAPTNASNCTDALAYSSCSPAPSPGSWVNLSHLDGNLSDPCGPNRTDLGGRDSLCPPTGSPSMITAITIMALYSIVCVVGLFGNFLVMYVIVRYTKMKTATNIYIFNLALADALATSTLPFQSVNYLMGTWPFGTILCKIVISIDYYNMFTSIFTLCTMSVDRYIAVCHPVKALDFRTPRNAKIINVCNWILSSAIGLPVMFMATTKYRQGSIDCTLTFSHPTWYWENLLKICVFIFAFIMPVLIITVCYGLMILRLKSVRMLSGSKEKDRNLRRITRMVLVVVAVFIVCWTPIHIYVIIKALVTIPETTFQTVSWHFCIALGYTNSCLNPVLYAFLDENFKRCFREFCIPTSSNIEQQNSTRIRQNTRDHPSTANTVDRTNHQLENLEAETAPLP

SMILES | inhibition at 1 µM (human μ-opiate receptor) [%] | inhibition at 1 µM (ORL1 receptor) [%] | % Inhibition (μ) at 1 μM (human μ-opiate receptor; 1 µM) [%] | % Inhibition (ORL1) at 1 μM (ORL1 receptor) [%] | % Inhibition (μ) at 1 μM (human μ-opiate receptor) [%]
CN(CCN1CCC(c2ccccc2)(N2CCCC2)CC1)C(=O)c1cc2cc(F)ccc2[nH]1 [Example 51, 5-Fluoro-N-methyl-N-(2-(4-phenyl-4-(pyrrolidin-1-yl)piperidin-1-yl)ethyl)-1H-indole-2-carboxamide] | 43 | 26 | – | – | –
CCCCC1(N(C)C)CCN(CCN(C)Cc2c[nH]c3ccccc23)CC1 [Example 138, 1-(2-(((1H-indol-3-yl)methyl)(methyl)amino)ethyl)-4-butyl-N,N-dimethylpiperidin-4-amine] | 81 | 12 | – | – | –
CN(C)C1(c2ccccc2)CCN(C(=O)C2CCCN(Cc3cccc4cc[nH]c34)C2)CC1 (centres unmarked) [Example 158, (1-((1H-indol-7-yl)methyl)piperidin-3-yl)(4-(dimethylamino)-4-phenylpiperidin-1-yl)methanone] | 93 | 61 | – | – | –
CN(CCN1CCC(c2ccccc2)(N(C)C)CC1)Cc1ccc2cc[nH]c2c1 [Example 184, 1-(2-(((1H-indol-6-yl)methyl)(methy)amino)ethyl)-N,N-dimethyl-4-phenylpiperidin-4-amine] | – | – | 99 | 95 | –
CC(C)C(CC(=O)N(C)C(C(=O)N1CCC(c2cccs2)(N(C)C)CC1)c1ccccc1)c1c[nH]c2ccccc12 (centres unmarked) [Example 105, N-(2-(4-(dimethylamino)-4-(thiophen-2-yl)piperidin-1-yl)-2-oxo-1-phenylethyl)-3-(1H-indol-3-yl)-N,4-dimethylpentanamide] | 91 | 63 | – | – | –
COc1ccc2c(c1)c(CN(C)CCN1CCC(c3ccccc3)(N(C)C)CC1)c(C)n2Cc1ccccc1 [Example 193, 1-(2-(((1-benzyl-5-methoxy-2-methyl-1H-indol-3-yl)methyl)(methyl)amino)ethyl)-N,N-dimethyl-4-phenylpiperidin-4-amine] | 82 | 68 | – | – | –
CC(CC(=O)NC(CC(=O)N1CCC(c2cccs2)(N(C)C)CC1)c1ccccc1)c1c[nH]c2ccccc12 (centres unmarked) [Example 91, N-(3-(4-(dimethylamino)-4-(thiophen-2-yl)piperidin-1-yl)-3-oxo-1-phenylpropyl)-3-(1H-indol-3-yl)butanamide] | 97 | 89 | – | – | –
CN(C)C1(c2cccs2)CCN(C(=O)CC(NCc2c[nH]c3ccccc23)c2ccccc2)CC1 (centres unmarked) [Example 164, 3-((1H-indol-3-yl)methylamino)-1-(4-(dimethylamino)-4-(thiophen-2-yl)piperidin-1-yl)-3-phenylpropan-1-one] | 96 | 82 | – | – | –
CC(C)C(CC(=O)N(C)CCN1CCC(c2ccccc2)(N(C)C)CC1)c1c[nH]c2ccccc12 (centres unmarked) [Example 87, N-(2-(4-(dimethylamino)-4-phenylpiperidin-1-yl)ethyl)-3-(1H-indol-3-yl)-N,4-dimethylpentanamide] | – | – | 102 | 93 | –
CN(C)C1(c2cccs2)CCN(C(=O)CC(NC(=O)c2ccc3ccn(C)c3c2)c2ccccc2)CC1 (centres unmarked) [Example 101, N-(3-(4-(dimethylamino)-4-(thiophen-2-yl)piperidin-1-yl)-3-oxo-1-phenylpropyl)-1-methyl-1H-indole-6-carboxamide] | 96 | 68 | – | – | –
COc1ccc2[nH]cc(CN(C)CCN3CCC(c4ccccc4)(N(C)C)CC3)c2c1 [Example 191, 1-(2-(((5-methoxy-1H-indol-3-yl)methyl)(methyl)amino)ethyl)-N,N-dimethyl-4-phenylpiperidin-4-amine] | – | – | 96 | 80 | –
COc1ccc2c(c1)c(CNCCN1CCC(c3cccs3)(N(C)C)CC1)c(C)n2Cc1ccccc1 [Example 78, 1-(2-((1-Benzyl-5-methoxy-2-methyl-1H-indol-3-yl)methylamino)ethyl)-N,N-dimethyl-4-(thiophen-2-yl)piperidin-4-amine] | 93 | 62 | – | – | –
Cc1c(CN(C)CCCN2CCC(c3cccs3)(N(C)C)CC2)c2ccccc2n1C [Example 81, 1-(3-(((1,2-Dimethyl-1H-indol-3-yl)methyl)(methyl)amino)propyl)-N,N-dimethyl-4-(thiophen-2-yl)piperidin-4-amine] | 100 | 98 | – | – | –
CN(C)C1(c2cccs2)CCN(C(=O)CC(NCc2ccc3[nH]ccc3c2)c2ccccc2)CC1 (centres unmarked) [Example 165, 3-((1H-indol-5-yl)methylamino)-1-(4-(dimethylamino)-4-(thiophen-2-yl)piperidin-1-yl)-3-phenylpropan-1-one] | 92 | 47 | – | – | –
CN(CCN1CCC(c2ccccc2)(N(C)C)CC1)Cc1ccc2[nH]ccc2c1 [Example 68, 1-(2-(((1H-Indol-5-yl)methyl)(methyl)amino)ethyl)-N,N-dimethyl-4-phenylpiperidin-4-amine] | 93 | 65 | – | – | –
CC(C)C(CC(=O)NC(CC(=O)N1CCC(c2cccs2)(N(C)C)CC1)c1ccccc1)c1c[nH]c2ccccc12 (centres unmarked) [Example 85, N-(3-(4-(dimethylamino)-4-(thiophen-2-yl)piperidin-1-yl)-3-oxo-1-phenylpropyl)-3-(1H-indol-3-yl)-4-methylpentanamide] | 101 | 94 | – | – | –
CN(C(=O)c1ccc2ccn(C)c2c1)C(C(=O)N1CCC(c2cccs2)(N(C)C)CC1)c1ccccc1 (centres unmarked) [Example 111, N-(2-(4-(dimethylamino)-4-(thiophen-2-yl)piperidin-1-yl)-2-oxo-1-phenylethyl)-N,1-dimethyl-1H-indole-6-carboxamide] | 82 | 60 | – | – | –
CN(C)C1(c2ccccc2)CCN(C(=O)C2CN(Cc3cccc4[nH]ccc34)c3ccccc32)CC1 (centres unmarked) [Example 175] | – | – | – | 10 | 70
CN(C)C1(c2cccs2)CCN(CCNCc2c[nH]c3ccc(Cl)cc23)CC1 [Example 72, 1-(2-((5-Chloro-1H-indol-3-yl)methylamino)ethyl)-N,N-dimethyl-4-(thiophen-2-yl)piperidin-4-amine] | – | – | 101 | 95 | –
CN(Cc1ccc2cc[nH]c2c1)C(C(=O)N1CCC(c2cccs2)(N(C)C)CC1)c1ccccc1 (centres unmarked) [Example 150, 2-(((1H-indol-6-yl)methyl)(methyl)amino)-1-(4-(dimethylamino)-4-(thiophen-2-yl)pipendin-1-yl)-2-phenylethanone] | – | – | – | 76 | 54
Cc1[nH]c2ccccc2c1CNC(CC(=O)N1CCC(c2cccs2)(N(C)C)CC1)c1ccccc1 (centres unmarked) [Example 168, 1-(4-(dimethylamino)-4-(thiophen-2-yl)piperidin-1-yl)-3-((2-methyl-1H-indol-3-yl)methylamino)-3-phenylpropan-1-one] | 92 | 73 | – | – | –
CN(CCCN1CCC(c2cccs2)(N(C)C)CC1)C(=O)Cc1c[nH]c2cc(F)ccc12 [Example 26, N-(3-(4-(Dimethylamino)-4-(thiophen-2-yl)piperidin-1-yl)propyl)-2-(6-fluoro-1H-indol-3-yl)-N-methylacetamide] | 88 | 59 | – | – | –
CN(CCN1CCC(c2ccccc2)(N(C)C)CC1)Cc1c[nH]c2ccc(Cl)cc12 [Example 182, 1-(2-(((5-chloro-1H-indol-3-yl)methyl)(methy)amino)ethyl)-N,N-dimethyl-4-phenylpiperidin-4-amine] | – | – | 101 | 95 | –
CN(C(=O)c1ccc2cc[nH]c2c1)C(C(=O)N1CCC(c2cccs2)(N(C)C)CC1)c1ccccc1 (centres unmarked) [Example 102, N-(2-(4-(dimethylamino)-4-(thiophen-2-yl)piperidin-1-yl)-2-oxo-1-phenylethyl)-N-methyl-1H-indole-6-carboxamide] | 66 | 65 | – | – | –
CC(C)c1ccc2c(CN(C)CCCN3CCC(c4cccs4)(N(C)C)CC3)c[nH]c2c1 [Example 67, 1-(3-(((6-Isopropyl-1H-indol-3-yl)methyl)(methyl)amino)propyl)-N,N-dimethyl-4-(thiophen-2-yl)piperidin-4-amine] | 93 | 90 | – | – | –
CN(C)C1(c2cccs2)CCN(C(=O)CC(NCc2ccc3cc[nH]c3c2)c2ccccc2)CC1 (centres unmarked) [Example 169, 3-((1H-indol-6-yl)methylamino)-1-(4-(dimethylamino)-4-(thiophen-2-yl)piperidin-1-yl)-3-phenylpropan-1-one] | 91 | 54 | – | – | –
CC(C)C(C(=O)N1CCC(c2ccccc2)(N(C)C)CC1)N(C)Cc1ccc2cc[nH]c2c1 (centres unmarked) [Example 149, 2-(((1H-indol-6-yl)methyl)(methyl)amino)-1-(4-(dimethylamino)-4-phenylpiperidin-1-yl)-3-methylbutan-1-one] | 54 | 52 | – | – | –
COc1ccc2[nH]cc(CN(C)CCN3CCC(c4ccccc4)(N(C)C)CC3)c2c1 [Example 192, 1-(2-(((5-methoxy-1H-indol-3-yl)methyl)(methyl)amino)ethyl)-N,N-dimethyl-4-phenylpiperidin-4-amine] | – | – | 96 | 76 | –
